Key:
[1] = Short-term in vivo model: serum calcium levels; design: species or system mice; conditions: 10 mg/kg intraperitoneally, after 4 days, n=3, FIG. 5D
Experimental: To quickly and simultaneously examine their SREBP inhibitory activity and VDR-derived calcemic activity in vivo, a short-term in vivo screening system of mice was established. With reference to the previous report (Horton, J. D. et al. Proc. Natl. Acad. Sci. U.S.A. 1998, 95, 5987-5992.), mice were fasted for 48 hours then refed a special diet (low fat, high carbohydrate diet, lacking in vitamin D) for 48 hours before sacrifice.
(§1) C57BL/6 and oh/oh mice were purchased from CLEA Japan and Charles River Japan, Inc., respectively. Animal experiments were carried out at the University of Tokyo and Charles River Laboratories. Low fat, high carbohydrate diet, lacking vitamin D was custom made by Research Diets, Inc. Compounds disclosed herein and 25(OH)D3 were dissolved in ethanol/Tween 20 (9:1) to obtain stock solution and then diluted 10-fold with PBS immediately before administration to mice.
10 mg/kg compounds or vehicle control were administered intraperitoneally once every 24 hours during the fasting and refeeding.
(§2) Following sacrifice, mouse livers were fixed in 10% neutral-buffered formalin, embedded in paraffin, sectioned, and stained with H&E. Hepatic lipids were extracted with chloroform/methanol (2:1 v/v), and TG and cholesterol contents were measured with Triglyceride Reagent Set (Pointe Scientific) and Cholesterol E (Wako), respectively. Serum levels of ALT, TG, glucose, cholesterol, and calcium were measured in SRL Inc. (Tokyo). All experiments were approved by the Ethics Committee for Animal Experimentation of the University of Tokyo and Charles River Laboratories Japan, and were conducted in accordance with the Guidelines for the Care and Use of Laboratory Animals.
Serum calcium levels in the mice treated with vehicle, compounds, or 25(OH)D3 were determined (means±SEM, n=3 per group), *p<0.05 (FIG. 5D).

[2] = system: SREBP; assay: SREBP luciferase reporter assay (pSRE-Luc) in CHO-K1 cells; type: cell-based; conditions: CHO-K1 cells
Experimental: Cell Culture: CHO-K1 cells were maintained in medium A (1:1 mixture of Ham's F-12 medium and DMEM, supplemented with 100 units/mL penicillin, 100 μg/mL streptomycin sulfate, and 5% [v/v] fetal bovine serum) at 37° C. in a humidified 5% CO2 incubator.
CHO-K1 cells were seeded into 96-well plates at 8×10^3 cells per well in medium A and incubated for 24 h. For SREBP reporter assay, cells were co-transfected with an SRE-1-driven luciferase reporter plasmid (pSRE-Luc) and an actin promoter-driven β-galactosidase expression plasmid (pAc-13-gal) at a 20:1 ratio, using FuGENE HD Transfection Reagent (Promega) according to the manufacturer's protocol.
After 20 h, the medium was changed to medium B (1:1 mixture of Ham's F-12 medium and DMEM, supplemented with 100 units/mL penicillin, 100 μg/mL streptomycin sulfate, 5% [v/v] lipid-depleted serum, 50 μM compactin (Tokyo Chemical Industry), and 50 μM lithium mevalonate (Sigma-Aldrich) containing the specific test compounds. After 24 h incubation, the cells in each well were lysed with 100 μL of 1× Reporter Lysis Buffer (Promega), and 50 μL of aliquots were used to measure luciferase and 13-gal activities. Luciferase activity was measured using the Steady-Glo Luciferase Assay System (Promega), and 13-gal activity was measured using the 13-Galactosidase Enzyme Assay System (Promega). Luciferase activity was normalized to 13-gal activity.
[…] The same experiment using of 25(OH)D3 (1) was performed as control. Values are mean±SD.

[3] = system: ob/ob mice; assay: Long-term in vivo model of fatty liver in ob/ob mice
Experimental: as §1, §2
Six-week-old ob/ob mice were treated with 10 mg/kg KK-052, 10 mg/kg 25(OH)D3, or vehicle control 5 times per week for 4 weeks (FIG. 7A).
Body weights of ob/ob mice were measured and data are given as means±SEM (25(OH)D3, n=5; others, n=8), *p<0.05 (FIG. 7B).
Hepatic TG and cholesterol contents were measured in KK-052- or vehicle-treated ob/ob mice (means±SEM), *p<0.05 (FIG. 7D).
Serum levels of ALT, TG, total cholesterol, glucose, and calcium were measured in KK-052- or vehicle-treated ob/ob mice (means±SEM), *p<0.05 (FIG. 7E).

[4] = 10 mg/kg 5 times per week for 4 weeks
[5] = ob/ob mice, versus vehicle, FIG. 7D

serum calcium levels versus vehicle-treated group ([3]; ob/ob mice, 10 mg/kg, 4 weeks, FIG. 7E)	Structure (SMILES)	serum calcium levels [1]	SREBP inhibitory activity (expression of SREBP-responsive luciferase reporter gene) ([2]; 5 μM compound, lipid-free medium, 24 h, FIGS. 1 and 3)	general condition of treated ob/ob mice [3, 4]	inhibition of activation of the SREBP reporter gene, concentration dependence ([2]; FIG. 6A)	weight gain ([3]; ob/ob mice, 10 mg/kg 5 times per week for 4 weeks, FIG. 7B)	liver steatosis (H&E histology) ([3]; ob/ob mice, 10 mg/kg, 4 weeks, FIG. 7C)	serum level of TG ([3]; ob/ob mice, FIG. 7E)	serum level of alanine aminotransferase (ALT) ([3]; ob/ob mice, FIG. 7E)	serum level of glucose ([3]; ob/ob mice, FIG. 7E)	hepatic cholesterol content [3, 5]	hepatic triglyceride (TG) content [3, 5]
–	C=C1CC[C@H](O)C/C1=C/C=C1\CCC[C@]2(C)[C@@H]([C@H](C)CCCC(C)(C)O)CC[C@@H]12 [25(OH)D3, 25-hydroxyvitamin D3, reference compound]	markedly increased	substantial inhibitory activity	became sick due to hypercalcemia and euthanized at 1 week	–	–	–	–	–	–	–	–
no detectable difference	C[C@H](CCC(F)(F)C(C)(C)O)[C@H]1CC[C@H]2/C(=C/Cn3nnnc3-c3ccccc3)CCC[C@]12C [Compound 50, (R)-3,3-Difluoro-2-methyl-6-{(1R,3aS,7aR,E)-7a-methyl-4-[2-(5-phenyl-1H-tetrazol-1-yl)ethylidene]octahydro-1H-inden-1-yl}heptan-2-ol]	no detectable increase	–	appeared healthy until the end of the experiments	concentration-dependent manner comparable to 25(OH)D3	slightly but significantly decreased	attenuated	significantly decreased	significantly decreased	significantly decreased	significantly decreased	significantly decreased
